Measurements taken from US8217048B2, “Inhibitors of serine proteases, particularly HCV NS3-NS4A protease” (Vertex Pharmaceuticals Incorporated, priority 2003, dated 2012).

Legend:
[1] = target: T1, HCV NS3-NS4A protease (Hepatitis C virus genotype 1a, UniProt P27958); experiment: HCV Ki Assay (enzyme, Example 5); type: biochemical; conditions: Ki values, tested according to Example 5 (enzyme); 5AB substrate, tNS3 with KK4A
T1 construct: The buffer, KK4A, DTT, and tNS3 were combined
Method: HPLC Microbore Method for Separation of 5AB Substrate and Products
NH2-Glu-Asp-Val-Val-(alpha)Abu-Cys-Ser-Met-Ser-Tyr-COOH
A stock solution of 20 mM 5AB (or concentration of your choice) was made in DMSO w/0.2M DTT. This was stored in aliquots at −20 C.
Buffer: 50 mM HEPES, pH 7.8; 20% glycerol; 100 mM NaCl
Total assay volume was 100 μL
The buffer, KK4A, DTT, and tNS3 were combined; distributed 78 μL each into wells of 96 well plate. This was incubated at 30 C for ˜5-10 min.
2.5 μL of appropriate concentration of test compound was dissolved in DMSO (DMSO only for control) and added to each well. This was incubated at room temperature for 15 min.
Initiated reaction by addition of 20 μL of 250 μM 5AB substrate (25 μM concentration is equivalent or slightly lower than the Km for 5AB).
Incubated for 20 min at 30 C.
Terminated reaction by addition of 25 μL of 10% TFA
Transferred 120 μL aliquots to HPLC vials
Separated SMSY product from substrate and KK4A by the following method:
Microbore Separation Method:
Instrumentation: Agilent 1100
Column thermostated chamber G1316A
Diode array detector G1315A
Solvent A=HPLC grade water+0.1% TFA
Solvent B=HPLC grade acetonitrile+0.1% TFA
Stop time: 17 min Post-run time: 10 min.

[2] = system: Cells containing hepatitis C virus (HCV) replicon; experiment: HCV Replicon Cell Assay (Example 4); type: cell-based; conditions: 48 h, tested according to Example 4 (cell), 50% inhibition of HCV RNA level, 48-hour incubation
Method: HCV Replicon Cell Assay Protocol
Cells containing hepatitis C virus (HCV) replicon were maintained in DMEM containing 10% fetal bovine serum (FBS), 0.25 mg per ml of G418, with appropriate supplements (media A).
On day 1, replicon cell monolayer was treated with a trypsin:EDTA mixture, removed, and then media A was diluted into a final concentration of 100,000 cells per ml wit. 10,000 cells in 100 ul were plated into each well of a 96-well tissue culture plate, and cultured overnight in a tissue culture incubator at 37° C.
On day 2, compounds (in 100% DMSO) were serially diluted into DMEM containing 2% FBS, 0.5% DMSO, with appropriate supplements (media B). The final concentration of DMSO was maintained at 0.5% throughout the dilution series.
Media on the replicon cell monolayer was removed, and then media B containing various concentrations of compounds was added. Media B without any compound was added to other wells as no compound controls.
Cells were incubated with compound or 0.5% DMSO in media B for 48 hours in a tissue culture incubator at 37° C. At the end of the 48-hour incubation, the media was removed, and the replicon cell monolayer was washed once with PBS and stored at −80° C. prior to RNA extraction.
Culture plates with treated replicon cell monolayers were thawed, and a fixed amount of another RNA virus, such as Bovine Viral Diarrhea Virus (BVDV) was added to cells in each well, RNA extraction reagents (such as reagents from RNeasy kits) were added to the cells immediately to avoid degradation of RNA. Total RNA was extracted according the instruction of manufacturer with modification to improve extraction efficiency and consistency. Finally, total cellular RNA, including HCV replicon RNA, was eluted and stored at −80° C. until further processing.
A Taqman real-time RT-PCR quantification assay was set up with two sets of specific primers and probe. One was for HCV and the other was for BVDV. Total RNA extractants from treated HCV replicon cells was added to the PCR reactions for quantification of both HCV and BVDV RNA in the same PCR well. Experimental failure was flagged and rejected based on the level of BVDV RNA in each well. The level of HCV RNA in each well was calculated according to a standard curve run in the same PCR plate. The percentage of inhibition or decrease of HCV RNA level due to compound treatment was calculated using the DMSO or no compound control as 0% of inhibition. The IC50 (concentration at which 50% inhibition of HCV RNA level is observed) was calculated from the titration curve of any given compound.

T1 sequence (P27958 1658-1711): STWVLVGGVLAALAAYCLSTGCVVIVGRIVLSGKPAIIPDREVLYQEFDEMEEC
T1 sequence (P27958 1027-1208): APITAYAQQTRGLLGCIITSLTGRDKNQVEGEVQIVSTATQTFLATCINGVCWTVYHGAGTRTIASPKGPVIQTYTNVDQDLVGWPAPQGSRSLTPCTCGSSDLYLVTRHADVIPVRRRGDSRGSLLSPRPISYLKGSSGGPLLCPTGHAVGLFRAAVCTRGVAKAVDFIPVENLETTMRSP

Structure (SMILES) | Ki [1] | IC50 [2]
CCC[C@H](NC(=O)C1C[C@@H](Oc2ccc(Cl)cc2Cl)CN1C(=O)[C@@H](NC(=O)[C@@H](NC(=O)c1cnccn1)C1CCCCC1)C(C)(C)C)C(=O)C(=O)NC1CC1 (stereo partly shown) [Compound 2] | 0.1 to 0.3 µM | 0.5 to 1 µM
CCC[C@H](NC(=O)C1C[C@@H](Oc2cc(Cl)ccc2Cl)CN1C(=O)[C@@H](NC(=O)[C@@H](NC(=O)c1cnccn1)C1CCCCC1)C(C)(C)C)C(=O)C(=O)NC1CC1 (stereo partly shown) [Compound 3] | 0.1 to 0.3 µM | 0.5 to 1 µM
CCC[C@H](NC(=O)C1C[C@@H](Oc2ccccc2F)CN1C(=O)[C@@H](NC(=O)[C@@H](NC(=O)c1cnccn1)C1CCCCC1)C(C)(C)C)C(=O)C(=O)NC1CC1 (stereo partly shown) [Compound 4] | 0.1 to 0.3 µM | 0.5 to 1 µM
CCCC(NC(=O)C1CC(Oc2cccc(Cl)c2Cl)CN1C(=O)C(NC(=O)C(NC(=O)c1cnccn1)C1CCCCC1)C(C)(C)C)C(=O)C(=O)NC1CC1 (stereo not shown) [Compound 5] | 0.1 to 0.3 µM | 0.5 to 1 µM
CCC[C@H](NC(=O)C1C[C@@H](Oc2ccccc2C(F)(F)F)CN1C(=O)[C@@H](NC(=O)[C@@H](NC(=O)c1cnccn1)C1CCCCC1)C(C)(C)C)C(=O)C(=O)NC1CC1 (stereo partly shown) [Compound 6] | > 0.3 µM | > 1 µM
CCC[C@H](NC(=O)C1C[C@@H](Oc2cccc(F)c2F)CN1C(=O)[C@@H](NC(=O)[C@@H](NC(=O)c1cnccn1)C1CCCCC1)C(C)(C)C)C(=O)C(=O)NC1CC1 (stereo partly shown) [Compound 7] | 0.1 to 0.3 µM | < 0.5 µM
CCC[C@H](NC(=O)C1C[C@@H](Oc2cc(F)ccc2F)CN1C(=O)[C@@H](NC(=O)[C@@H](NC(=O)c1cnccn1)C1CCCCC1)C(C)(C)C)C(=O)C(=O)NC1CC1 (stereo partly shown) [Compound 8] | 0.1 to 0.3 µM | 0.5 to 1 µM
CCC[C@H](NC(=O)C1C[C@@H](Oc2ccccc2OC(F)(F)F)CN1C(=O)[C@@H](NC(=O)[C@@H](NC(=O)c1cnccn1)C1CCCCC1)C(C)(C)C)C(=O)C(=O)NC1CC1 (stereo partly shown) [Compound 9] | > 0.3 µM | –
CCC[C@H](NC(=O)C1C[C@@H](Oc2c(F)cccc2F)CN1C(=O)[C@@H](NC(=O)[C@@H](NC(=O)c1cnccn1)C1CCCCC1)C(C)(C)C)C(=O)C(=O)NC1CC1 (stereo partly shown) [Compound 10] | 0.1 to 0.3 µM | 0.5 to 1 µM
CCC[C@H](NC(=O)C1C[C@@H](Oc2cc(C(F)(F)F)cc(C(F)(F)F)c2)CN1C(=O)[C@@H](NC(=O)[C@@H](NC(=O)c1cnccn1)C1CCCCC1)C(C)(C)C)C(=O)C(=O)NC1CC1 (stereo partly shown) [Compound 11] | > 0.3 µM | > 1 µM
CCC[C@H](NC(=O)C1C[C@@H](Oc2cc(Cl)cc(Cl)c2)CN1C(=O)[C@@H](NC(=O)[C@@H](NC(=O)c1cnccn1)C1CCCCC1)C(C)(C)C)C(=O)C(=O)NC1CC1 (stereo partly shown) [Compound 12] | 0.1 to 0.3 µM | < 0.5 µM
CCC[C@H](NC(=O)[C@@H]1C[C@@H](Oc2ccc(C(F)(F)F)cc2)CN1C(=O)[C@@H](NC(=O)[C@@H](NC(=O)c1cnccn1)C1CCCCC1)C(C)(C)C)C(=O)C(=O)NC1CC1 [Compound 13] | 0.1 to 0.3 µM | < 0.5 µM
CCC[C@H](NC(=O)[C@@H]1C[C@@H](Oc2ccc(OC(F)(F)F)cc2)CN1C(=O)[C@@H](NC(=O)[C@@H](NC(=O)c1cnccn1)C1CCCCC1)C(C)(C)C)C(=O)C(=O)NC1CC1 [Compound 14] | 0.1 to 0.3 µM | < 0.5 µM
CCC[C@H](NC(=O)[C@@H]1C[C@@H](Oc2cccc(-c3ccccc3)c2)CN1C(=O)[C@@H](NC(=O)[C@@H](NC(=O)c1cnccn1)C1CCCCC1)C(C)(C)C)C(=O)C(=O)NC1CC1 [Compound 15] | < 0.1 µM | < 0.5 µM
CCC[C@H](NC(=O)[C@@H]1C[C@@H](Oc2ccccc2-c2ccccc2)CN1C(=O)[C@@H](NC(=O)[C@@H](NC(=O)c1cnccn1)C1CCCCC1)C(C)(C)C)C(=O)C(=O)NC1CC1 [Compound 17] | > 0.3 µM | –
